From ChEMBL document CHEMBL1140792, “Isothiazolidinone inhibitors of PTP1B containing imidazoles and imidazolines” (Bioorg Med Chem Lett, 2008)

Key:
[1] = molecular target: T1, Tyrosine-protein phosphatase non-receptor type 1 (Homo sapiens, UniProt P18031); assay: Inhibition of PTP1B by pNPP assay
T1 sequence (P18031 whole entry): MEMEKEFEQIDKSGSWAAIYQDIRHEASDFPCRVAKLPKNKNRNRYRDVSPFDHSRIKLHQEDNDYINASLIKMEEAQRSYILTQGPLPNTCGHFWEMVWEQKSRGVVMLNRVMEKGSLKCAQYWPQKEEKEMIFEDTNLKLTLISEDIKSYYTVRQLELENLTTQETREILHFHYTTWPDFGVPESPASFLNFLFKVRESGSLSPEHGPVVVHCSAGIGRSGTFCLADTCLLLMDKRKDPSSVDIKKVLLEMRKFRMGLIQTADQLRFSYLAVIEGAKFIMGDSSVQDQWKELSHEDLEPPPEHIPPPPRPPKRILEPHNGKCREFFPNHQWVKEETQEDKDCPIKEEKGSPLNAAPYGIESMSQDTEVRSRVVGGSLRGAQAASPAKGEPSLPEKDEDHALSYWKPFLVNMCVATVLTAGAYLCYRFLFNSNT

[2] = molecular target: T2, Tyrosine-protein phosphatase non-receptor type 2 (Homo sapiens, UniProt P17706); assay: Inhibition of TCPTP by pNPP assay
T2 sequence (P17706 whole entry): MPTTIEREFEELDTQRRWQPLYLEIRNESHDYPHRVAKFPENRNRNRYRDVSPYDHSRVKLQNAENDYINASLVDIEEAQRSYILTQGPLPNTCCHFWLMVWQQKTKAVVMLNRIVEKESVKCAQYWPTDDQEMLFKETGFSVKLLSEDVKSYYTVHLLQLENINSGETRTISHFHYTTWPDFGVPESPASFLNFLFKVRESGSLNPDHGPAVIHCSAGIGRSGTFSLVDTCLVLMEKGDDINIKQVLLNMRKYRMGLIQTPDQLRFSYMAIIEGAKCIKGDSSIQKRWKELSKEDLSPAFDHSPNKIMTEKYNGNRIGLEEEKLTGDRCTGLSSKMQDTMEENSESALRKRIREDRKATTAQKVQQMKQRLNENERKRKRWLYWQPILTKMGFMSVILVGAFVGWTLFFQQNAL

[3] = Selectivity for PTP1B over TCPTP

Compound	IC50 [1]	IC50 [2]	Ratio IC50 [3]
O=C1CC(c2ccc(CC(NS(=O)(=O)c3cccc(C(F)(F)F)c3)C3=NCCN3)cc2)S(=O)(=O)N1 (configuration not stated)	700 nM	500 nM	–
COC(=O)c1c(O)cccc1OCCCc1cnc(C(Cc2ccc(C3CC(=O)NS3(=O)=O)c(C)c2)NS(=O)(=O)c2cccc(F)c2)[nH]1 (configuration not stated)	350 nM	170 nM	–
O=C1CC(c2ccc(CC(NS(=O)(=O)c3cccc(C(F)(F)F)c3)c3ncc(-c4ccccc4)[nH]3)cc2)S(=O)(=O)N1 (configuration not stated)	–	61 nM	–
O=C1CC(c2ccc(CC(NS(=O)(=O)c3cccc(F)c3)c3ncc(CCc4ccccc4)[nH]3)cc2)S(=O)(=O)N1 (configuration not stated)	180 nM	100 nM	–
O=C1CC(c2ccc(CC(NS(=O)(=O)c3cccc(F)c3)C3=NC[C@@H](CCc4ccccc4)N3)cc2)S(=O)(=O)N1 (some centres not stated)	130 nM	68 nM	–
Cc1cc(CC(NS(=O)(=O)c2cccc(F)c2)C2=NC[C@@H](COc3cccc(S(C)(=O)=O)c3)N2)ccc1C1CC(=O)NS1(=O)=O (some centres not stated)	800 nM	470 nM	–
Cc1cc(CC(NS(=O)(=O)c2cccc(F)c2)C2=NC[C@@H](CCCCOc3cccc(O)c3C(=O)O)N2)ccc1C1CC(=O)NS1(=O)=O (some centres not stated)	22 nM	46 nM	2
NC(=O)C(Cc1ccc(C2CC(=O)NS2(=O)=O)cc1)NS(=O)(=O)c1cccc(C(F)(F)F)c1 (configuration not stated)	5030 nM	5000 nM	–
O=C1CC(c2ccc(CC(NS(=O)(=O)c3cccc(C(F)(F)F)c3)c3nc4ccccc4[nH]3)cc2)S(=O)(=O)N1 (configuration not stated)	–	43 nM	–
C[C@H]1CN=C(C(Cc2ccc(C3CC(=O)NS3(=O)=O)cc2)NS(=O)(=O)c2cccc(C(F)(F)F)c2)N1 (some centres not stated)	810 nM	670 nM	–
CC1(C)CN=C(C(Cc2ccc(C3CC(=O)NS3(=O)=O)cc2)NS(=O)(=O)c2cccc(C(F)(F)F)c2)N1 (configuration not stated)	930 nM	700 nM	–
O=C1CC(c2ccc(CC(NS(=O)(=O)c3cccc(C(F)(F)F)c3)C3=NC[C@@H](Cc4ccccc4)N3)cc2)S(=O)(=O)N1 (some centres not stated)	150 nM	120 nM	–
C[C@@H]1CN=C(C(Cc2ccc(C3CC(=O)NS3(=O)=O)cc2)NS(=O)(=O)c2cccc(C(F)(F)F)c2)N1 (some centres not stated)	540 nM	420 nM	–
Cc1cc(CC(NS(=O)(=O)c2cccc(F)c2)c2ncc(CCCCOc3cccc(O)c3C(=O)O)[nH]2)ccc1C1CC(=O)NS1(=O)=O (configuration not stated)	32 nM	46 nM	–
Cc1cc(CC(NS(=O)(=O)c2cccc(F)c2)C2=NC[C@@H](CCCOc3cccc(S(C)(=O)=O)c3)N2)ccc1C1CC(=O)NS1(=O)=O (some centres not stated)	160 nM	84 nM	–
Cc1cc(CC(NS(=O)(=O)c2cccc(F)c2)C2=NC[C@@H](CCOc3cccc(S(C)(=O)=O)c3)N2)ccc1C1CC(=O)NS1(=O)=O (some centres not stated)	23 nM	25 nM	–
COC(=O)c1c(O)cccc1OCCCCc1cnc(C(Cc2ccc(C3CC(=O)NS3(=O)=O)c(C)c2)NS(=O)(=O)c2cccc(F)c2)[nH]1 (configuration not stated)	160 nM	170 nM	–

The remaining molecules from weak to strong by IC50 [2], led by results:

IC50 [1]	IC50 [2]	Ratio IC50 [3]	Compound
2900 nM	2070 nM	–	O=C1CC(c2ccc(CC(NS(=O)(=O)c3cccc(C(F)(F)F)c3)C3=NC[C@H](c4ccccc4)N3)cc2)S(=O)(=O)N1 (some centres not stated)
1300 nM	1100 nM	–	O=C1CC(c2ccc(CC(NS(=O)(=O)c3cccc(C(F)(F)F)c3)C3=NC[C@H](Cc4ccccc4)N3)cc2)S(=O)(=O)N1 (some centres not stated)
660 nM	430 nM	–	O=C1CC(c2ccc(CC(NS(=O)(=O)c3cccc(C(F)(F)F)c3)C3=NC[C@@H](c4ccccc4)N3)cc2)S(=O)(=O)N1 (some centres not stated)
250 nM	270 nM	–	O=C1CC(c2ccc(CC(NS(=O)(=O)c3cccc(F)c3)c3ncc(Cc4ccccc4)[nH]3)cc2)S(=O)(=O)N1 (configuration not stated)
240 nM	270 nM	–	O=C1CC(c2ccc(CC(NS(=O)(=O)c3cccc(C(F)(F)F)c3)c3ncc[nH]3)cc2)S(=O)(=O)N1 (configuration not stated)
–	230 nM	–	O=C1CC(c2ccc(CC(NS(=O)(=O)c3cccc(C(F)(F)F)c3)c3ncc(Cc4ccccc4)[nH]3)cc2)S(=O)(=O)N1 (configuration not stated)
170 nM	170 nM	–	O=C1CC(c2ccc(CC(NS(=O)(=O)c3cccc(C(F)(F)F)c3)c3ncc(CCc4ccccc4)[nH]3)cc2)S(=O)(=O)N1 (configuration not stated)
120 nM	170 nM	–	Cc1cc(CC(NS(=O)(=O)c2cccc(F)c2)c2ncc(CCCOc3cccc(O)c3C(=O)O)[nH]2)ccc1C1CC(=O)NS1(=O)=O (configuration not stated)
200 nM	160 nM	–	O=C1CC(c2ccc(CC(NS(=O)(=O)c3cccc(C(F)(F)F)c3)c3ncc(CCCCc4ccccc4)[nH]3)cc2)S(=O)(=O)N1 (configuration not stated)
210 nM	140 nM	–	O=C1CC(c2ccc(CC(NS(=O)(=O)c3cccc(F)c3)C3=NC[C@@H](Cc4ccccc4)N3)cc2)S(=O)(=O)N1 (some centres not stated)
260 nM	110 nM	–	O=C1CC(c2ccc(CC(NS(=O)(=O)c3cccc(F)c3)c3ncc(CCCCc4ccccc4)[nH]3)cc2)S(=O)(=O)N1 (configuration not stated)
160 nM	90 nM	–	O=C1CC(c2ccc(CC(NS(=O)(=O)c3cccc(F)c3)c3nc(-c4ccccc4)c[nH]3)cc2)S(=O)(=O)N1 (configuration not stated)
110 nM	65 nM	–	COC(=O)c1c(O)cccc1OCCCC[C@@H]1CN=C(C(Cc2ccc(C3CC(=O)NS3(=O)=O)c(C)c2)NS(=O)(=O)c2cccc(F)c2)N1 (some centres not stated)
52 nM	51 nM	–	O=C1CC(c2ccc(CC(NS(=O)(=O)c3cccc(C(F)(F)F)c3)c3ncc(CCCc4ccccc4)[nH]3)cc2)S(=O)(=O)N1 (configuration not stated)
–	38 nM	–	O=C1CC(c2ccc(CC(NS(=O)(=O)c3cccc(F)c3)C3=NC[C@@H](Cc4ccccc4F)N3)cc2)S(=O)(=O)N1 (some centres not stated)
–	24 nM	–	O=C1CC(c2ccc(CC(NS(=O)(=O)c3cccc(F)c3)c3ncc(CCCc4ccccc4)[nH]3)cc2)S(=O)(=O)N1 (configuration not stated)
